Reference: patent publication US20100216779A1 (GLAXOSMITHKLINE LLC, priority 2007, published 2010)

Legend:
COLO205 (colon) = assay: Inhibition of cell proliferation, CellTiter-Glo, COLO205; type: cell-based; conditions: Homo sapiens, COLO 205, 72 h
Method in brief: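 Exponentially growing COLO205 cells in medium with 10% FBS were plated below 2000 cells/well at 37 °C, 5% CO2. Untreated wells served as controls.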

[1] = target: T1, IR (NIH-3T3 cells over expressing human IGF-1R or IR) (Homo sapiens, UniProt P06213); assay: IR cellular autophosphorylation (DELFIA); type: cell-based; conditions: NIH-3T3 cells over expressing IR, insulin stimulated
T1 construct: expressed in transfected cells; host or cells: NIH-3T3 (mouse fibroblasts)
Method in brief: (§1)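 Readout: DELFIA on lysates, with anti-IGF-1R or anti-IR capture and europium anti-pTyr detection, expressed relative to 100% ligand-stimulated signal. Human IGF-1R- or IR-overexpressing NIH-3T3 cells got compound (1.5 nM–30 uM) for 2 h before 15 min IGF-1 (30 ng/mL) or insulin (3 ug/mL).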

[2] = test system: NCI-H929 (multiple myeloma); assay: Inhibition of cell proliferation, CellTiter-Glo, NCI-H929; type: cell-based; conditions: Homo sapiens, 72 h
Method in brief: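 Cells were grown in medium with 10% FBS at 37° C, 5% CO2. Cell number was read as CellTiter-Glo luminescence (cellular ATP), with untreated wells as control.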

human IR (hIR) = target: T2, human IR (hIR) (Homo sapiens, UniProt P06213); assay: IR TR-FRET assay using peptide as the phosphoacceptor; type: biochemical; conditions: 10 μM ATP, 0.5 nM activated enzyme
T2 construct: containing amino acid residues 979-1382 of human IR; GST (N); rTEV protease site (linker between GST and kinase) (N); made in house; host or cells: Sf9 cells, baculovirus (same process as hIGF1R)

[3] = target: T3, human IGF-1R (NIH-3T3 cells over expressing human IGF-1R) (Homo sapiens, UniProt P08069); assay: IGF-1R cellular autophosphorylation (DELFIA); type: cell-based; conditions: IGF-1 stimulated
T3 construct: expressed in transfected cells; host or cells: NIH-3T3 (mouse fibroblasts)
Method in brief: as §1

human IGF1R (hIGF1R) = target: T4, human IGF1R (hIGF1R) (Homo sapiens, UniProt P08069); assay: IGF1R TR-FRET assay using peptide as the phosphoacceptor; type: biochemical; conditions: 10 μM ATP, 0.5 nM activated enzyme
T4 construct: containing amino acid residues 957-1367 of human IGF1R; made in house; host or cells: Sf9 cells, baculovirus
Experimental: A. IR and IGF1 R Time Resolved Fluorescence Resonance Energy Transfer (TR-FRET) Assay Using Peptide as the Phosphoacceptor
Substrate phosphorylation assays are carried out as follows:
The Source of Substrate Peptide
The biotinylated substrate peptide, (sequence-Biotin-aminohexyl-AEEEEY*[…]-NH2) SEQ. ID. 1 is purchased from QCB, Inc. (Hopkinton, Mass.). Purity is determined by HPLC. The calculated molecular mass of the peptide is 2216 dalton. Tyrosine phosphorylation by human IGF1R (hIGF1R) or human IR (hIR) occurs as indicated (Y*) in the peptide sequence described. Solid peptide sample is dissolved to approximately 1 mM in DMSO, aliquoted, and stored at −20° C. until use. True peptide concentration is determined by amino acid analysis.
The Source of Enzyme: • hIGF1R: GST-rTEV-IGF-1R (957-1367) containing amino acid residues 957-1367 of human IGF1R (as annotated by National Center for Biotechnology Information (NCBI) accession number NP_000866) is purified from a baculovirus expression system in Sf9 cells using Glutathione Sepharose 4FF column chromatography followed by Sephadex-200 size exclusion column chromatography. Enzyme purity of approximately 95% is achieved. Samples, in 25 mM Tris-HCl, 250 mM NaCl, 5% glycerol, 1 mM DTT, pH 7.5, are stored at −80° C. until use. • hIR: GST-rTEV-IR(979-1382) containing amino acid residues 979-1382 of human IR (as annotated by NCBI accession number NP_000199) is expressed and purified by the same process as hIGF1R. Enzyme purity of approximately 92% is achieved. Samples, in 25 mM Tris-HCl, 250 mM NaCl, 5% glycerol, 1 mM DTT, pH 7.5, are stored at −80° C. until use.
Activation of hIGF1R and hIR by Autophosphorylation: • hIGF1R: Activation of GST-rTEV-IGF-1R(957-1367) is achieved by a 4 minute incubation of hIGF1R (2.7 μM final) with 2 mM ATP in 50 mM HEPES, 20 mM MgCl2, 0.1 mg/mL BSA, at room temperature. Autophosphorylation is stopped by addition of EDTA (to 100 mM final). Aliquoted samples are flash frozen in liquid nitrogen and stored at −80° C. until use. • hIR: Activation of […] is achieved by a 5 minute incubation of hIR (2.7 μM final) with 2 mM ATP in 100 mM HEPES, 10 mM MgCl2, 0.1 mg/mL BSA, at room temperature. Autophosphorylation is stopped by addition of EDTA (to 100 mM final). Aliquoted samples are flash frozen in liquid nitrogen and stored at −80° C. until use. • Kinase Assay of Purified hIGF1R or hIR:
Assays are performed in 384-well (Greiner, Catalog No. 784076) microtiter plates. Reaction buffer (50 mM HEPES buffer, pH 7.5; 10 mM MgCl2; 3 mM DTT; 1 mM CHAPS; 0.1 mg/mL BSA) for peptide phosphorylation (10 μl volume) contained, in final concentrations, 500 nM biotinylated peptide substrate; 10 μM ATP; and purified, activated hIGF1R or hIR (0.5 nM). Some compounds were initially assayed against IGF1R in buffer without DTT or CHAPS. […] Compounds, titrated in DMSO, are evaluated at eleven concentrations ranging from 50 μM to 0.2 nM. […] No effect on activity relative to controls without DMSO is observed for hIGF1R or IR at these DMSO amounts. Reactions are incubated for 1 hour at room temperature and are stopped by a 5 μl addition of EDTA (to 33 mM). A further addition of 5 μl detection reagents (for final 7 nM Streptavidin-APC (PerkinElmer #CR130-150), 1 nM Europium-labeled anti-phosphotyrosine monoclonal antibody (PerkinElmer #AD0067), added in reaction buffer (without DTT), is required for signal generation. After 30 minutes, signal is read on PerkinElmer Viewlux microplate imager or Wallac Victor fluorometer.
Data were fitted to the curve described by:
y=((Vmax*x)/(K+x)) where • Vmax is the upper asymptote and • K is the IC50.
The results for each tested compound were recorded as pIC50 calculated as follows: […]

T3 sequence (P08069 31-1367): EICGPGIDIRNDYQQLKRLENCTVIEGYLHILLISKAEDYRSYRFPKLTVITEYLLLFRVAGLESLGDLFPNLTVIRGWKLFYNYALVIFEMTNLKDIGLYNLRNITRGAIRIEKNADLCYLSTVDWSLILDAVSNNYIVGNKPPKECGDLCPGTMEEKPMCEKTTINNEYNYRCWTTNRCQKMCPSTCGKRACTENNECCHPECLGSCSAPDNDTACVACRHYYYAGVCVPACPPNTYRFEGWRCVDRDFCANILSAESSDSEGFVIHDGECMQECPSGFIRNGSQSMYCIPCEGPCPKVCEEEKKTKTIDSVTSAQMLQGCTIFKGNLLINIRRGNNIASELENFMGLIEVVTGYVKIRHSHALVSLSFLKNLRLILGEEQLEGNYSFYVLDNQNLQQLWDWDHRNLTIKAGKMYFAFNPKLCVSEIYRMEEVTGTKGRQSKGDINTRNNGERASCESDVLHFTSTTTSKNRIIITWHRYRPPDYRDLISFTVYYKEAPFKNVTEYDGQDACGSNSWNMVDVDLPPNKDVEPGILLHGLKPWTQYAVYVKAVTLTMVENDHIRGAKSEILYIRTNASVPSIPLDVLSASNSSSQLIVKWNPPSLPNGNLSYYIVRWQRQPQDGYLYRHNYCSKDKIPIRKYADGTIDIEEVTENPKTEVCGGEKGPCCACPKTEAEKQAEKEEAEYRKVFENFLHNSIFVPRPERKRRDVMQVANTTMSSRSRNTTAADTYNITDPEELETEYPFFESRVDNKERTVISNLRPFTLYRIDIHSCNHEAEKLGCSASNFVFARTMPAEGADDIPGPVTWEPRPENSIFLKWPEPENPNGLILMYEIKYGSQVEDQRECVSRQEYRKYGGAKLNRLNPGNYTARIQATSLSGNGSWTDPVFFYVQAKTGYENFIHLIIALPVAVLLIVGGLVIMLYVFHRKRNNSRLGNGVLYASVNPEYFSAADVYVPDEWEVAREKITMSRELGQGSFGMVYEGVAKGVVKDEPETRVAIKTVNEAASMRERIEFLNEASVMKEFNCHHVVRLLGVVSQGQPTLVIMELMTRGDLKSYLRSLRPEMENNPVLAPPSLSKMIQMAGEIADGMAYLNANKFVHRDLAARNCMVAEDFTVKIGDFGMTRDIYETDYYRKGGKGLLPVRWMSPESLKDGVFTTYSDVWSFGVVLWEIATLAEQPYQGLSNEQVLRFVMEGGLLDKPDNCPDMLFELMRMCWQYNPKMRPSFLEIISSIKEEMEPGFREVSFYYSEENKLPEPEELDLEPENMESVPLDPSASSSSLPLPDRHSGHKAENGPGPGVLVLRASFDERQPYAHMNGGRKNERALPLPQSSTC
T1 sequence (P06213 28-1382): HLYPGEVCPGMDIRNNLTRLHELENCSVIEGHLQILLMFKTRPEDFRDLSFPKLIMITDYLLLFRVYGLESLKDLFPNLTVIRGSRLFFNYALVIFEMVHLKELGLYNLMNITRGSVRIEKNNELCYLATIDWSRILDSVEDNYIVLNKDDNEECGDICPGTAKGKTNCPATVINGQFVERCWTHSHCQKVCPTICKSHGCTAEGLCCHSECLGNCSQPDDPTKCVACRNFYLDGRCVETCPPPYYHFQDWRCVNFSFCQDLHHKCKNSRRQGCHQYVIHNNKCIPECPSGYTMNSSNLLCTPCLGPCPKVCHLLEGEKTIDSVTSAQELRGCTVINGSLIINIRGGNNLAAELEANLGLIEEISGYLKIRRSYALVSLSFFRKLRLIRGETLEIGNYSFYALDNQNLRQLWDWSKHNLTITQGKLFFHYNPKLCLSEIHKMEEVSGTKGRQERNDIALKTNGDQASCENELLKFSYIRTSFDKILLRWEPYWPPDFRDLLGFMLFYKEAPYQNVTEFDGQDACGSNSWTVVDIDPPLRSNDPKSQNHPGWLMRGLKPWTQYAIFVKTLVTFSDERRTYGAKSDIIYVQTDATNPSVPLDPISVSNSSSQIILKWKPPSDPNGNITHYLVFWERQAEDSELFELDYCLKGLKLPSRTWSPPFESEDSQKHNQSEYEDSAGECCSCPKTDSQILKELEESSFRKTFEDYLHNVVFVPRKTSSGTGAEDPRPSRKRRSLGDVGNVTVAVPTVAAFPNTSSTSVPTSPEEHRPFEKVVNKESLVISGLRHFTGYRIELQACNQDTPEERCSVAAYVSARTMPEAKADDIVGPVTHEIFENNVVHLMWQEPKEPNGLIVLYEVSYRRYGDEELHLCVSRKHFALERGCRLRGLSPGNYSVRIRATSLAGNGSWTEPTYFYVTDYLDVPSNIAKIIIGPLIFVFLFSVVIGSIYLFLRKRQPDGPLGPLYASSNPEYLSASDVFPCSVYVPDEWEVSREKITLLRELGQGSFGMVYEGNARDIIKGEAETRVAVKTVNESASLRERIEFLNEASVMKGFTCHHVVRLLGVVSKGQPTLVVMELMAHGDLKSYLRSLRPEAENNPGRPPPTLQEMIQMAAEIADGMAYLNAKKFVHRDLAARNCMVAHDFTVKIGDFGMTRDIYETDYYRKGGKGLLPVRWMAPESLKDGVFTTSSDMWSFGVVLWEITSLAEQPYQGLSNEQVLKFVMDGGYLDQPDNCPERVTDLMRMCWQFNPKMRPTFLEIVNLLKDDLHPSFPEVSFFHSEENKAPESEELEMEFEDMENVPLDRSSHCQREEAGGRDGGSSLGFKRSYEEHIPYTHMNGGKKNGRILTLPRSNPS
T4 sequence (P08069 957-1367): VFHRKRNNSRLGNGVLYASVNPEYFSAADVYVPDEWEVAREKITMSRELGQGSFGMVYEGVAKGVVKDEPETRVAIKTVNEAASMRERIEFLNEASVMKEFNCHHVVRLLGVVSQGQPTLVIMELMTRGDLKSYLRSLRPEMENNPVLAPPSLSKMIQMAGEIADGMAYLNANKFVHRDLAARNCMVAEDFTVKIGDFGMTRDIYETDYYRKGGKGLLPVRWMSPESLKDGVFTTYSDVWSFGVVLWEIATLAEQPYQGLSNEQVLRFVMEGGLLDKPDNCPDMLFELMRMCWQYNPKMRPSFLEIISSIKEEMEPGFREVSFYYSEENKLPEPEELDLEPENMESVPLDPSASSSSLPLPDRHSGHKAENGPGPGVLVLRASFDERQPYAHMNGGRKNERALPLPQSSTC
T2 sequence (P06213 979-1382): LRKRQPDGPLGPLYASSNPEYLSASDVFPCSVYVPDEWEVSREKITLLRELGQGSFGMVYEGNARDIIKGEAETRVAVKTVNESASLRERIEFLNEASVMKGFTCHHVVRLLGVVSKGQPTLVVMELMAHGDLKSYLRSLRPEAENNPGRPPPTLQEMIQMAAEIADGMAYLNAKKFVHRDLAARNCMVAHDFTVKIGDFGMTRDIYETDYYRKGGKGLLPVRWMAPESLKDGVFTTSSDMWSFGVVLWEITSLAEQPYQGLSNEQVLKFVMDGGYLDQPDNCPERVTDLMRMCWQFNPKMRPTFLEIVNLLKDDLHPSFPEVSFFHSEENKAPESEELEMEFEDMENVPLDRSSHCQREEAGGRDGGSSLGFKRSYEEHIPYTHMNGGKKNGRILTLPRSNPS

| IC50 (COLO205 (colon)) [nM] | IC50 [1] [nM] | IC50 [2] [nM] | IC50 [3] [nM] | IC50 (human IR (hIR); read-out: IR pIC50 (converted)) [nM] | IC50 (human IGF1R (hIGF1R); read-out: IGF-1R pIC50 (converted)) [nM] | SMILES | IR pIC50 (human IR (hIR)) | IGF-1R pIC50 (human IGF1R (hIGF1R)) |
| --- | --- | --- | --- | --- | --- | --- | --- | --- |
| < 250 | < 100 | < 250 | < 100 |  |  | CCOc1cc(N2CCC(CCS(C)(=O)=O)CC2)c(CC)cc1Nc1nccc(-c2c(-c3ccc(OCC)c(C(=O)Nc4c(F)cccc4F)c3)nc3ccccn23)n1 [Example 208, N-(2,6-difluorophenyl)-5-(3-{2-[(5-ethyl-2-(ethyloxy)-4-{4-[2-(methylsulfonyl)ethyl]-1-piperidinyl}phenyl)amino]-4-pyrimidinyl}imidazo[1,2-a]pyridin-2-yl)-2-(ethyloxy)benzamide] | ++ (at least one average pIC50 measurement greater than 6 against the kinase tested but no average measurement greater than pIC50 of 7) | ++ (at least one average pIC50 measurement greater than 6 against the kinase tested but no average measurement greater than pIC50 of 7) |
| < 250 | < 100 | < 250 | < 100 | < 100 | < 100 | COc1cc(N2CCN(S(C)(=O)=O)CC2)c(C)cc1Nc1nccc(-c2c(-c3ccc(OC)c(C(=O)Nc4c(F)cccc4F)c3)nc3ccccn23)n1 [Example 225, N-(2,6-difluorophenyl)-5-{3-[2-({5-methyl-2-(methyloxy)-4-[4-(methylsulfonyl)-1-piperazinyl]phenyl}amino)-4-pyrimidinyl]imidazo[1,2-a]pyridin-2-yl}-2-(methyloxy)benzamide] |  |  |
| < 250 | < 100 | < 250 | < 100 |  |  | CCOc1cc(N2CCC(CCS(C)(=O)=O)CC2)c(C)cc1Nc1nccc(-c2c(-c3ccc(OC(C)C)c(C(=O)Nc4c(F)cccc4F)c3)nc3ccccn23)n1 [Example 215] | ++ (at least one average pIC50 measurement greater than 6 against the kinase tested but no average measurement greater than pIC50 of 7) | ++ (at least one average pIC50 measurement greater than 6 against the kinase tested but no average measurement greater than pIC50 of 7) |
| < 250 | < 100 | < 250 | < 100 |  |  | CCOc1ccc(-c2nc3ccccn3c2-c2ccnc(Nc3cc(CC)c(N4CCC(N5CCN(S(C)(=O)=O)CC5)CC4)cc3OC)n2)cc1C(=O)Nc1c(F)cccc1F [Example 206, N-(2,6-difluorophenyl)-5-(3-{2-[(5-ethyl-2-(methyloxy)-4-{4-[4-(methylsulfonyl)-1-piperazinyl]-1-piperidinyl}phenyl)amino]-4-pyrimidinyl}imidazo[1,2-a]pyridin-2-yl)-2-(ethyloxy)benzamide] | ++ (at least one average pIC50 measurement greater than 6 against the kinase tested but no average measurement greater than pIC50 of 7) | ++ (at least one average pIC50 measurement greater than 6 against the kinase tested but no average measurement greater than pIC50 of 7) |
